Assay: xn = mol fraction of the nth substance listed
Settings: 101.3 kPa

CNc1ccccc1 + CCCCCC[n+]1ccn(C)c1.F[B-](F)(F)F
speed of sound [m/s]
Settings	x2 = 0	x2 = 0.1058	x2 = 0.2201	x2 = 0.3079	x2 = 0.395	x2 = 0.501	x2 = 0.6034	x2 = 0.7024	x2 = 0.804	x2 = 0.8984
293.15 K	1584	–	1589	1580	1569	1557	–	1538	1531	1526
298.15 K	1565	1578	1577	1569	–	1549	1539	1532	1526	1523
303.15 K	1546	–	1560	1554	1545	1535	–	1519	1513	1510
308.15 K	–	1545	1544	–	–	–	1512	1505	1501	1497
313.15 K	1508	1527	1528	1523	1516	1507	1499	1493	1488	–
318.15 K	1489	–	1511	1507	1501	–	1486	1480	1476	1472
323.15 K	–	1490	1495	1492	1486	1479	1473	1467	1464	1460

CCCCCCCCn1cc[n+](C)c1.F[B-](F)(F)F + CNc1ccccc1
speed of sound [m/s]
Settings	x1 = 0.1032	x1 = 0.2037	x1 = 0.285	x1 = 0.383	x1 = 0.4978	x1 = 0.5939	x1 = 0.7016	x1 = 0.7942	x1 = 0.9002	x1 = 1
293.15 K	1582	1571	–	1549	1536	1526	–	1509	1502	1499
298.15 K	–	1555	1545	1533	1521	1512	1502	1495	1488	1485
303.15 K	1548	1538	1529	1518	1507	1499	1489	–	1475	1472
308.15 K	1531	1522	1513	1503	–	–	–	1469	1462	–
313.15 K	1514	–	1498	1489	1479	–	1463	1456	1450	1446
318.15 K	1496	1491	1483	–	1465	1458	1451	1444	1438	1433
323.15 K	1479	–	1468	1460	1451	1444	–	1431	1426	1421

CNc1ccccc1 + CCCCCCCCn1cc[n+](C)c1.F[B-](F)(F)F
x2 = 0
Settings	speed of sound [m/s]
298.15 K	1565
303.15 K	1546
308.15 K	1527
313.15 K	1508
318.15 K	1489
323.15 K	1471

CCCCCC[n+]1ccn(C)c1.F[B-](F)(F)F + CNc1ccccc1
x1 = 1
Settings	speed of sound [m/s]
298.15 K	1519
303.15 K	1507
308.15 K	1494
313.15 K	1482
318.15 K	1470
323.15 K	1458

CCCC[n+]1ccn(C)c1.F[B-](F)(F)F + CNc1ccccc1
x1 = 1
Settings	speed of sound [m/s]
303.15 K	1555
313.15 K	1532
318.15 K	1521
323.15 K	1511

CNc1ccccc1 + CCCC[n+]1ccn(C)c1.F[B-](F)(F)F
speed of sound [m/s]
Settings	x2 = 0	x2 = 0.0973	x2 = 0.184	x2 = 0.2982	x2 = 0.3909	x2 = 0.5025	x2 = 0.5928	x2 = 0.7005	x2 = 0.7963	x2 = 0.901
293.15 K	1584	1598	1602	–	–	1594	–	1586	–	1580
298.15 K	–	–	1587	1590	1586	1580	1577	1573	1571	1569
303.15 K	1546	1564	1572	1575	1572	–	–	–	–	1558
308.15 K	1527	–	1555	1560	–	1554	–	1550	–	1547
313.15 K	1508	1532	1540	1544	1544	1543	1541	1539	–	1536
318.15 K	–	1515	1524	1529	1530	–	1528	1527	1526	1525
323.15 K	1471	1498	1508	1514	–	1516	1515	1516	1515	1516

From a compilation of properties of binary mixtures (doi:10.1021/acs.jced.0c00426)
